Measurements published in patent US20050154066A1, “Antiaging composition” (KANEKA CORPORATION, priority 2004, published 2005).

Legend:
rats = settings: administered every day for 52 weeks at 1,200 mg/kg/day (Williams et al. 1999); cited from earlier work
[1] = in vitro; cited from earlier work
[2] = test system: Aging-accelerated model mice (SAMP1); experiment: Aging preventing (retarding) effect in aging-accelerated model mice, aging degree score; assay type: in vivo; settings: SAMP1 female mice, about 150 to 250 mg/kg/day; for aging degree score (increase): feed containing 0.2% test substance, versus control feed, FIG. 1 / FIG. 2
Description: In evaluating such antiaging effects, for example, aging-accelerated model mice, can be used as an in vivo evaluation model. This mouse is a model mouse discovered and bred at Kyoto University, Japan, which develops the state of aging early and markedly.
Aging-accelerated model mice (SAMP1, 3-week-old females) were allowed free access to a feed (CE-2, product of CLEA Japan, Inc.) containing 0.2% reduced coenzyme Q10 (containing about 1% of oxidized coenzyme Q10) obtained in Production Example 1, and the aging degree of each mouse was quantified with time according to the aging degree score mentioned below. The dose of reduced coenzyme Q10 as estimated from the feed consumption and animal weight corresponded to about 150 to 250 mg/kg/day. A control group was given the feed alone (CE-2, product of CLEA Japan, Inc.).
The aging-accelerated model mice used were model mice discovered and bred at Kyoto University which develop the state of aging early and markedly. These mice show the state of aging quite similar to that of humans, and are useful model animals for in vivo testing for antiaging effects. The aging degree scoring system employed was the scoring system established by the Council for SAM Research. Thus, scores of 0 to 4 were given to each animal with respect to each of the following 11 items: 1: decrease in activity (searching behavior), 2: decrease in passivity (pinching escaping behavior), 3: loss of hair luster, 4: roughening of hair, 5: loss of hair, 6: skin ulcer, 7: periophthalmic lesions (blepharitis and periophthalmic erosion), 8: corneal clouding, 9: corneal ulcer, 10: cataract, 11: increased anterior or backward spinal curvature. The conditions found in a group of young mice about 3 months of age were taken as standards and given the score 0 (zero). Thus, a higher score indicates more advanced aging.
The test of Example 1 was performed in the same manner except that oxidized coenzyme Q10 was used in lieu of reduced coenzyme Q10. […]

| Compound | toxic effect (rats) | antioxidant activity [1] | aging degree score (increase) [2] | aging preventing effect compared with reduced coenzyme Q10 ([2]; feed, FIG. 2 vs FIG. 1) |
| --- | --- | --- | --- | --- |
| COC1=C(OC)C(=O)C(C/C=C(\C)CC/C=C(\C)CC/C=C(\C)CC/C=C(\C)CC/C=C(\C)CC/C=C(\C)CC/C=C(\C)CC/C=C(\C)CC/C=C(\C)CCC=C(C)C)=C(C)C1=O [coenzyme Q10] | no toxic effect | – | – | – |
| COC1=C(OC)C(=O)C(C/C=C(\C)CC/C=C(\C)CC/C=C(\C)CC/C=C(\C)CC/C=C(\C)CC/C=C(\C)CC/C=C(\C)CC/C=C(\C)CC/C=C(\C)CCC=C(C)C)=C(C)C1=O [oxidized coenzyme Q10] | – | does not show antioxidant activity | suppressed to a certain extent | weak |
| COc1c(O)c(C)c(C/C=C(\C)CC/C=C(\C)CC/C=C(\C)CC/C=C(\C)CC/C=C(\C)CC/C=C(\C)CC/C=C(\C)CC/C=C(\C)CC/C=C(\C)CCC=C(C)C)c(O)c1OC [reduced coenzyme Q10] | – | shows antioxidant activity | distinctly prevented from increasing | – |
